Measurements from patent US4788200A, “Method and composition for treating arteriosclerosis” (MECT Corporation, priority 1986, dated 1988).

What was measured:
metastasis of cancer = conditions: experiments using animals; cited from earlier work
[1] = system: cholesterol content of the blood serum; assay: Effect against hyperlipidemia (Demonstration 1): cholesterol content of blood serum; type: in vivo, mice; conditions: for Reduction Rate of Cholesterol in Blood Serum: mice, oral
Experimental: (§1) Six mice were bred with high cholesterol-cholic acid feeds for 7 days so as to induce hyperlipidemia; one half of the total dose of each compound (I) as set forth in Table 1 was orally administered at the sixth day and the other half was orally administered at the seventh day. After starving the mice for one night, the cholesterol content of the blood serum of the respective mice was determined. It was judged that the tested compound had the desired activity (of reducing fat content of blood) when the cholesterol content of the blood serum was decreased by 15% or more as compared to that of the mice of the control group.

[2] = system: lipoproteins precipitated by heparin (corresponding to the fractions of LDL and VLDL); assay: Effect against hyperlipidemia (Demonstration 2): lipoproteins precipitated by heparin (HPL, LDL and VLDL fractions) in blood serum; type: in vivo, mice; conditions: for Decrease of HPL / HPL/Cholesterol ratio: mice, oral; for HPL/Cholesterol ratio: criterion not more than 0.92
Experimental: as §1, with “group. Similar experiments were conducted as in Example 2, and it was judged that the tested compound had the desired activity (of reducing fat content in blood) when the content of lipoproteins precipitated by heparin (corresponding to the fractions of LDL and VLDL) in the blood serum of the tested group was decreased by 20% or more as compared to that of the mice of control group. Decrease of atheromic β-LDL or increase of HDL could be estimated when the ratio of lipoproteins precipitated by heparin to cholesterol (HPL/cholesterol) was not more than 0.92.” for “group.”

blood platelets = assay: Anticoagulating function for inhibiting coagulation of blood platelets (aggregometer, PRP, arachidonic acid); type: cell-based, rabbit (White Japanese native species); conditions: for Response (inhibition of coagulation of blood platelets): in vitro, arachidonic acid 50 mcg/ml, rabbit PRP, 37° C., 2 minutes
Experimental: White Japanese native species male rabbits each having a body weight of from 2.5 to 4.0 kg were used. The state of health of the rabbits was checked by visual examination for such as diarrhea and scabies in the ears, and the number of blood platelets and the hematocrit value of the individual rabbits were determined using the blood taken from the auricular vein of the individual rabbits. Rabbits each having a number of blood platelets of from 30×10^4 to 50×10^4 […] and a hematocrit value of from 30 to 40% were selected and the thus selected rabbits were fed for a pre-breeding period of one week, and then the number of blood platelets and the hematocrit value of the thus bred rabbits were determined again.
Using an injection tube treated with silicone, blood was taken from the auricular artery so that the ratio of blood to a 3.8% sodium citrate solution was 9 to 1 by volume, and the content of the tube was subjected to centrifugal separation at 100 to 140 g for 10 minutes. The supernatant was separated as platelet rich plasma (PRP), and the lower phase was further subjected to centrifugal separation at 450 g or 300 g for 10 minutes to obtain a platelet poor plasma (PPP). After subjecting the PRP to centrifugal separation at 800 g for 10 minutes, precipitated blood platelets were rinsed one time with a 5 m MEDTA deprived of Ca^2+ and MG^2+ and Hepes-Tyrode buffer (pH 7.4), and then suspended in Hepes-Tyrode buffer (pH 7.4) to obtain rinsed blood platelets. In the coagulation experiment, the number of blood platelets in PRP was directly counted by the Brecher-Cronkite method to control the same within the range of from 50×10^4 to 70×10^4 /mm^3.
Using an aggregometer, PRP was added with each of specimen drugs, followed by incubation at 37° C. for a predetermined time period (2 minutes), and an aggregation provoker (arachidonic acid, 50 mcg/ml) was added and then subjected to measurement.
The control drug used was Aspirin.

Test on acute toxicity = type: in vivo, mice; conditions: for acute toxicity, changes observed: mice
Experimental: The compound (I) was administered to mice in an amount of 300 mg/kg orally or abdominally.

Clc1ccccc1CN1CCc2sccc2C1 [ticlopidine]
effect of inhibiting metastasis of cancer (metastasis of cancer): have the effect of inhibiting metastasis of cancer

OCCN(CCO)c1nc(N2CCCCC2)c2nc(N(CCO)CCO)nc(N3CCCCC3)c2n1 [dipyridamol]
effect of inhibiting metastasis of cancer (metastasis of cancer): have the effect of inhibiting metastasis of cancer

N[C@H](Cc1cc(I)c(Oc2cc(I)c(O)c(I)c2)c(I)c1)C(=O)O [D-thyroxine, reference compound]
Reduction Rate of Cholesterol in Blood Serum ([1]; 10 mg/kg): 30%
Decrease of HPL ([2]; 10 mg/kg): 35%
HPL/Cholesterol ratio ([2]; 10 mg/kg): 0.93

COc1ccc(-c2nc3sc4ccccc4n3c(=O)c2-c2ccccc2)cc1 [Compound (I), 2-(p-methoxyphenyl)-3-phenylpyrimido[2,1-b]benzothiazole-4(4H)-one]
efficacy relative to control drug Aspirin (blood platelets; from Table 3): 2.5 times
Response (inhibition of coagulation of blood platelets) (blood platelets; 1 γ (μg/ml)): 100
acute toxicity, changes observed (Test on acute toxicity; abdominal, 200 mg/kg): No changes were observed
acute toxicity, changes observed (Test on acute toxicity; oral, 300 mg/kg): No changes were observed
toxicity on successive administration, changes observed (Test on acute toxicity; mouse, in vivo, 100 mg/kg): no substantial change was observed
pharmaceutical efficacy relative to control agent D-thyroxine ([1]; from Table 1, fraction of D-thyroxine efficacy): about 2/5
Reduction Rate of Cholesterol in Blood Serum ([1]; 10 mg/kg): 11%
Reduction Rate of Cholesterol in Blood Serum ([1]; 25 mg/kg): 16%
pharmaceutical efficacy relative to control agent D-thiroxicine ([2]; from Table 2, fraction of D-thiroxicine efficacy): about 2/5
Decrease of HPL ([2]; 10 mg/kg): 17%
Decrease of HPL ([2]; 25 mg/kg): 23%
HPL/Cholesterol ratio ([2]; 25 mg/kg): 0.92

CC(=O)Oc1ccccc1C(=O)O [Aspirin, reference compound]
Response (inhibition of coagulation of blood platelets) (blood platelets; 2.5 γ (μg/ml)): 100
effect of inhibiting metastasis of cancer (metastasis of cancer): have the effect of inhibiting metastasis of cancer
